How the values were obtained:
Type in all cases: cell-based
HCT116 (colon cancer) = experiment: Cell toxicity test (living cell count); details: HCT116 cells, 0, 500, 1000, 5000 nM, 4 days, FIG. 1
Protocol: (§1) The cell line utilized for cell toxicity test of retinal derivatives were SK-Hep-1(liver cancer), MDA-MB-231 (breast cancer), HaCAT (skin cancer), and HCT116 (colon cancer). Those cell lines were maintained and cultured in DMEM (Dulbecco's Modified Eagle's Medium)/10% FBS containing 10% fetal bovine serum (FBS) (GibcoBRL, Gaithersburg, Md.). 3×10^3 cells, 100 μl media per well were distribute into 96 well microtiter plate and cultured for 24 hours. Each cultured cell lines were treated with various concentrations of retinal derivatives (0, 500, 1000, 5000 nM) for 4 days and living cells were counted with hemocytometer to measure the inhibition effect of cell proliferation.
(§2) The retinal derivatives utilized for the experiments were retinol-(N-formyl-aspartam), retinol, 4-HPR[N-(4-hydroxyphenyl)retineamide] (Sigma Co., St. Louis, Mo.). Those derivatives were eluted in dimethylsulfoxide and the concentration of dimethylsulfoxide added into culture media was kept at not over 0.01%.

HaCAT (skin cancer) = experiment: Cell toxicity test (living cell count); details: HaCAT cells, 0, 500, 1000, 5000 nM, 4 days, FIG. 1
Protocol: as §1, §2

[1] = system: MDA-MB-231 (breast cancer); experiment: Cell toxicity test (living cell count); details: MDA-MB-231 cells, 0, 500, 1000, 5000 nM, 4 days, FIG. 1
Protocol: as §1, §2

SK-Hep-1 (liver cancer) = experiment: Cell toxicity test (living cell count); details: SK-Hep-1 cells, 0, 500, 1000, 5000 nM, 4 days, FIG. 1
Protocol: as §1, §2

retinoid X receptor α = target: T1, retinoid X receptor α (Homo sapiens, UniProt P19793); experiment: RXR activity test, DR1-tk-CAT reporter in HaCAT cells; details: 1 μM, CAT ELISA, FIG. 2 (B)
T1 construct: expressed in transfected cells; host or cells: HaCAT
T1 sequence (P19793 1-462): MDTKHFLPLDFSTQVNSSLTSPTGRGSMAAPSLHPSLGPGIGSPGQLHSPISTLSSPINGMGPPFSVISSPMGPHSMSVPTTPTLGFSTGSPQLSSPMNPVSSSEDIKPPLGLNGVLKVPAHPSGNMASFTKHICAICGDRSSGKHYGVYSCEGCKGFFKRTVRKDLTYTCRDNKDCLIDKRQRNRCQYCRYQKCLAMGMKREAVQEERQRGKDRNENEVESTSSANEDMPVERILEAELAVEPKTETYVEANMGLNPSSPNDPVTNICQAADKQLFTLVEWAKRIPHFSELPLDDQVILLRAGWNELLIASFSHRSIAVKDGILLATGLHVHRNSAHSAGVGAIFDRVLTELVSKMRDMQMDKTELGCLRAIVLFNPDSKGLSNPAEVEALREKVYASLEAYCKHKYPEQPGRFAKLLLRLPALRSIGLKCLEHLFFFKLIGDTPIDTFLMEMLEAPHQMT
Source text: (§3) To analyze the effects of retinol-(N-formyl-aspartam) on the activity of retinoic acid receptor, skin cancer (HaCAT) cell lines were utilized to measure the activity of retinoic acid receptor/retinoid X receptor.
(§4) Recombinant DNA, DR5-tk-CAT or DR1-tk-CAT consisting of DR1 or DR5, effectors of retinoic acid receptor/retinoid X receptor, thymine kinase promoter, and CAT(chloramphenicol acetyl transferase) were mixed with the plasmid DNA expressing retinoic acid receptor α, β, ? or retinoid X receptor α, β, ? to cotransfect skin cancer (HaCAT) cell line with lipofectamine (GibcoBRL). The cotransfected cell lines were cultured for 1 day on DMEM/10% FBS media, each retinol derivatives (1 μM) were added and cultured for one more day, 5% CO2, 37° C. The cells were washed with phosphate-buffered saline (PBS), and the proteins were isolated from each cells, and the activity of β-galactosidase and protein contents were measured to determine transfection efficacy, the transcription level of RAR or RXR receptor were measured with CAT ELISA (Roche Molecular Biochemical, Mannheim, Germany).

retinoid X receptor β = target: T2, retinoid X receptor β (Homo sapiens, UniProt P28702); experiment: as above; details: 1 μM, CAT ELISA, FIG. 2 (B)
T2 construct: expressed in transfected cells; host or cells: HaCAT
T2 sequence (P28702 1-533): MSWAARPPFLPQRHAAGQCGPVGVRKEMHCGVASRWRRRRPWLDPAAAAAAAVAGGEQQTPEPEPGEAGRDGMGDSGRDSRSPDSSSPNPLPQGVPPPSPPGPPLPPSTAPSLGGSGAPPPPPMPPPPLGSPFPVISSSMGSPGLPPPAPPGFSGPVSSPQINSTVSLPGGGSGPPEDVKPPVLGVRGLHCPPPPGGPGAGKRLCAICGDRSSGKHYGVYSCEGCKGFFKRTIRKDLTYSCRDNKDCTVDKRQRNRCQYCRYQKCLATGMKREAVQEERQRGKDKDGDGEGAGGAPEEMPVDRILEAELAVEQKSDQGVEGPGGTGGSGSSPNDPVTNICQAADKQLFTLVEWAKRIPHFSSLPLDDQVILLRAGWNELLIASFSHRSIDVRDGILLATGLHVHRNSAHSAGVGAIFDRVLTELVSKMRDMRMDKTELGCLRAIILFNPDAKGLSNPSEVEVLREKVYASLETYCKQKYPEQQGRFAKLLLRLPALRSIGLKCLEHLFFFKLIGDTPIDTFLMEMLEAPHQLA
Source text: as §3, §4

[2] = system: activation protein-1 (AP-1); experiment: Activity inhibition test of AP-1, Coll-CAT reporter in HaCAT cells; details: c-Jun expression, in the presence of retinoic acid receptor α, CAT ELISA, FIG. 6
Protocol: Since the activation protein-1 (c-Jun is the constituent of AP-1) is transcription factor inducing expression of collagenase enzyme, which is a major cause of skin wrinkle, the effect of wrinkle prevention was determined by the activity inhibition test of AP-1.
CAT reporter (Coll-CAT) containing collagen promoter including AP-1 transcription factor binding site (TRE) were utilized to cotransfect skin cancer (HaCAT) cell line. The effect of retinol derivatives on the activity of AP-1 was measured by CAT ELISA. In some cases, the vector expressing c-Jun or retinoic acid receptors were utilized to cotransfect, and the effect of retinol derivatives on the transcription activity of c-Jun was analyzed.
With the assumption of the prepared retinol-(N-formyl-aspartam) derivatives which inhibit the activity of AP-1 causing skin wrinkle, would have the utility for cosmetics, the related investigations were proceeded. Similar to the experiment of retinoic acid receptor, AP-1 (c-jun) expression vector and Coll-CAT plasmid for the activity measurement were introduced into the skin cancer (HaCAT) cell line with liposome. After treating the cells with retinol-(N-formyl-aspartam) derivatives, the cell extracts were isolated. The expression level of CAT were measured with CAT ELISA to determine the effect of retinol-(N-formyl-aspartam) on the activity of the AP-1.

[3] = system: activation protein-1 (AP-1); experiment: Activity inhibition test of AP-1, Coll-CAT reporter in Cos-1 cells; details: expression level in the presence of c-Jun expression set as 100%
Source text: CAT reporter (Coll-CAT) containing collagen promoter including AP-1 transcription factor binding site (TRE) was utilized to transfect Cos-1 cell line. Activity inhibition tests of activation protein-1 (AP-1) similar to the experimental example 6 were proceeded.

- activation of retinoid X receptor α (retinoid X receptor α): no activation
- activation of retinoid X receptor β (retinoid X receptor β): no activation
Compound: COC(=O)C(Cc1ccccc1)NC(=O)[C@H](CC(=O)OC/C=C(C)/C=C/C=C(C)/C=C/C1=C(C)CCCC1(C)C)NC=O (stereo partly drawn) [retinol-(N-formyl-aspartam), (2E,4E,6E,8E)-3,7-dimethyl-9-(2,6,6-trimethyl-1-cyclohexenyl)-2,4,6,8-nonatetraenyl(3S)-4-[(1-benzyl-2-methoxy-2-oxoethyl)amino]-3-formylamino-4-oxobutanoate]
- cell toxicity (inhibition of cell proliferation) (HCT116 (colon cancer)): less toxicity than retinol
- cell toxicity (inhibition of cell proliferation) (HaCAT (skin cancer)): no toxicity
- cell toxicity (inhibition of cell proliferation) [1]: no toxicity
- cell toxicity (inhibition of cell proliferation) (SK-Hep-1 (liver cancer)): no toxicity
- lowered the expression of collagenase (Coll-CAT) [2]: ~44%
- lowered the expression of collagenase (Coll-CAT) [3]: approximately 42%
